Experimental findings from patent US20100173935A1, “Muscarinic Receptor Agonists that are Effective in the Treatment of Pain, Alzheimer's Disease and Schizophrenia” (AstraZeneca AB, priority 2006, published 2010) are described below.

For this experiment, the target named is T1, hM1 (human Muscarinic receptor subtype 1) (Homo sapiens, UniProt P11229).
T1 construct: expressed in transfected cells; host or cells: CHO cells (ATCC)
T1 sequence (P11229 1-460): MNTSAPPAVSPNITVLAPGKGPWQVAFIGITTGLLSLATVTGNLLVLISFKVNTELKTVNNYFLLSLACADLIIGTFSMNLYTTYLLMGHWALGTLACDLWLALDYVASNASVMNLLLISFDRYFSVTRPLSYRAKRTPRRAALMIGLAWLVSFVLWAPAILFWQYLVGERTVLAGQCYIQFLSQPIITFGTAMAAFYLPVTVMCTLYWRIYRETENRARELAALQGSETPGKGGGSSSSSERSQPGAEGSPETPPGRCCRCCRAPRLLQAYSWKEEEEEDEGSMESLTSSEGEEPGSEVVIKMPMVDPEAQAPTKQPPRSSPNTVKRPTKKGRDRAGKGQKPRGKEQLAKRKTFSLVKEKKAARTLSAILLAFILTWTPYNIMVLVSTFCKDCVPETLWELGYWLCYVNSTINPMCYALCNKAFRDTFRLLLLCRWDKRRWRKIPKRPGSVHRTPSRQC
The experiment can be described thus: Human M1 calcium mobilization FLIPR assay. The class given is cell-based. Conditions: CHO cells expressing hM1, Ca2+ release. As for the experimental part: The compound activity in the present invention (EC50 or IC50) was measured using a 384 plate-based imaging assay that monitors drug induced intracellular Ca^2+ release in whole cells. Activation of hM1 (human Muscarinic receptor subtype 1, gene bank access NM_000738), rM1 (rat Muscarinic receptor subtype 1, gene bank access NM_080773), hM3 (human Muscarinic receptor subtype 3, gene bank access NM_000740NM_000740) and hM5 (human Muscarinic receptor subtype 5, gene bank access NM_0121258), receptors expressed in CHO cells (chinese hamster ovary cells, ATCC) was quantified in a Molecular Devices FLIPR II™ instrument as an increase in fluorescent signal. Inhibition of hM3 and hM5 by compounds was determined by the decrease in fluorescent signal in response to 20 nM carbachol activation.
CHO cells were plated in 384-black polylysine coated plate (Costar) at 8000 cells/well/50 μl for 24 hours or 4000 cells/well for 48 hours in a humidified incubator (5% CO2 and 37° C.) in DMEM/F12 medium without selection agent. Prior to the experiment the cell culture medium was removed from the plates by inversion. A loading solution of 30 μl of Hank's balanced salt solution, 10 mM Hepes and 2.5 mM Probenicid at Ph 7.4 (Cat no. 311-520-VL, Wisent) with 2 μM calcium indicator dye (FLUO-3AM, Molecular Probes F14202) was added to each well. Plates were incubated at 37° C. for 60 minutes prior to start the experiment. The incubation was terminated by washing the cells four times in assay buffer, leaving a residual 25 μl buffer per well. Cell plates were then transferred to the FLIPR, ready for compound additions.
The day of experiment, carbachol and compounds were diluted in three-fold concentration range (10 points serial dilution) for addition by FLIPR instrument. For all calcium assays, a baseline reading was taken for 30 seconds followed by the addition of 12.5 μl (25 μl for hM1 and rM1) of compounds, resulting in a total well volume of 37.5 μl (50 μl for hM1 and rM1). Data were collected every 1.6 seconds for 300 seconds. For hM3 and hM5 an additional 12.5 μl of carbachol (20 nM final) was added at 300 seconds. After this addition of carbachol (producing a final volume of 50 μl), the FLIPR continued to collect data every 2 seconds for 240 seconds. The fluorescence emission was read using filter 1 (emission 520-545 nm) by the FLIPR on board CCD camera.
Calcium mobilization output data were calculated as the maximal relative fluorescence unit (RFU) minus the minal value for both compound and agonist reading frame (except for hM1 and rM1 using only the maximal RFU). Data were analyzed using sigmoidal fits of a non-linear curve-fitting program (XLfit version 5.0.6 from ID Business Solutions Limited, Guildford, UK). All EC50 and IC50 values are reported as arithmetic means±standard error of mean of ‘n’ independent experiments.
(Calcium flux is commonly read through the fluorescence of an indicator in the cells.)

As for `CCOC(=O)N1CC[C@H](N2CCC(n3c(=O)[nH]c4ccc(C)cc43)CC2)C1` (single isomer, unassigned) [Example 37], the EC50 was found to be 0.6 nM. Next, `CCOC(=O)N1CCC(N2CCC(n3c(=O)[nH]c4ccc(C)cc43)CC2)C1` (single isomer, unassigned) [Example 38]: 7.9 nM; `CCOC(=O)N1CC[C@H](N2CCC(n3c(=O)[nH]c4ccc(OC)cc43)CC2)C1` (single isomer, unassigned) [Example 39]: 21.9 nM.

As for `CCOC(=O)N1CCC(N2CCC(n3c(=O)n(C)c4ccccc43)CC2)C1` (centres unmarked) [Example 10, Ethyl 3-[4-(3-methyl-2-oxo-2,3-dihydro-1H-benzimidazol-1-yl)piperidin-1-yl]pyrrolidine-1-carboxylate], the EC50 was 286 nM. The result for `CCOC(=O)N1CCC(N2CCC(n3nnc4ccccc43)CC2)C1` (centres unmarked) [Example 11, ethyl 3-[4-(1H-1,2,3-benzotriazol-1-yl)piperidin-1-yl]pyrrolidine-1-carboxylate] reads 612 nM; that for `CCOC(=O)N1CCC(N2CCC(=C3C(=O)Nc4ccccc43)CC2)C1` (centres unmarked) [Example 12, Ethyl 3-[4-(2-oxo-1,2-dihydro-3H-indol-3-ylidene)piperidin-1-yl]pyrrolidine-1-carboxylate], 2690 nM; that for `Cn1cccc1C(=O)N1CC[C@H](N2CCC(n3c(=O)[nH]c4ccccc43)CC2)C1` [Example 21, 1-(1-{(3S)-1-[(1-methyl-1H-pyrrol-2-yl)carbonyl]pyrrolidin-3-yl}piperidin-4-yl)-1,3-dihydro-2H-benzimidazol-2-one], 1180 nM.

For `CCOC(=O)N1CCC(N2C3CCC2CC(n2c(=O)[nH]c4ccccc42)C3)C1` (centres unmarked) [Example 30, Ethyl 3-[3-(2-oxo-2,3-dihydro-1H-benzimidazol-1-yl)-8-azabicyclo[3.2.1]oct-8-yl]pyrrolidine-1-carboxylate], the EC50 stood at 518 nM.

Usually EC50 stands for the concentration at which the effect is half-maximal.
